According to US5468587A, “Hydrogen bond accepting groups on thermal solvents for image separation systems” (Eastman Kodak Company, priority 1993, dated 1995):

What was measured:
[1] = heat activated transfer of image dye (yellow coupler Y-1, developer CD-3) through gelatin interlayer to polymeric dye receiver, Status A blue density; conditions: 3 passes; coupler Y-1, CD-3
Protocol: (§1) Heat Activated Image Transfer. Dried integral films are laminated with gelatin subbed ESTAR™ film base and passed through a set of heated rollers at 0.635 cm./sec. with roller surface temperatures of 110° C. and a pressure of 140 kPa. The two film bases are separated; the gelatin layers adhere to the gelatin subbed ESTAR™ base and are thus separated from the polymeric dye receiver layer and its support. Status A reflection densitometry is obtained on the polymeric dye-receiver layer coated on a reflective support. These density values determined with the appropriate Status A filter are given in Example 1 in Table III.
Thermal Solvent Test Employing a Yellow Dye Forming Coupler. Three film examples are prepared in a manner analogous to examples 1 and 2 above, using a yellow dye forming coupler, Y-1, and a blue sensitized cubic emulsion in place of M-1 and a green sensitized emulsion, respectively. […]
For all three example films the dye density transferred to the dye-receiverlayer in the absence of a thermal processing step (0-pass) is quite small indicating the absence of significant transfer under aqueous processing. […] For film example 15 in which the interlayer contains both gelatin and the thermal test material, TS-1, there is a substantial transfer of image dye as measured by the blue density. […]

[2] = heat activated transfer of image dye (yellow coupler Y-1, developer CD-2) through gelatin interlayer to polymeric dye receiver, Status A blue density; conditions: coupler Y-1, CD-2
Protocol: as §1
Thermal Solvent Test Employing a Yellow Dye Forming Coupler. Three film examples are prepared in a manner analogous to examples 1 and 2 above, using a yellow dye forming coupler, Y-1, and a blue sensitized cubic emulsion in place of M-1 and a green sensitized emulsion, respectively. In this example TS-1 is compared with no added hydroxybenzene compound and with a hydroxybenzene without a hydrogen bond accepting functional group (CS-1). The thermal solvent [drawing 8] test layer is coated at gelatin laydown of 1.40 g/m^2 and a thermal solvent test compound at 1.30 g/m^2. The dye generating layer is coated at 1.40 g/m^2 of gelatin, 0.53 g/m^2 of coupler Y-1 and 0.38 g/m^2 of Ag. The photographic development and thermal processing is as described in example 2. […]

[3] = heat activated transfer of image dye (coupler M-1, developer CD-3) through gelatin interlayer to polymeric dye receiver, Status A green density
Protocol: The following 17 examples are prepared to examine the ability of materials to effect the transfer of image dye through intervening layers of gelatin binder into a polymeric dye receiver layer and are described by the coating format shown in FIG. 2. The first layer (FIG. 2, layer 14) contains gelatin binder and the material to be tested as a thermal solvent while the upper layer (FIG. 2, layer 16) contains the image generating chemistry comprising a silver chloride emulsion and a dispersion of a dye generating coupler in a gelatin binder. A third, protective overcoat, layer (FIG. 2, layer 15) containing gelatin and hardener is applied over the first two gelatin test layers.
Examples 1 and 2 describe in detail the preparation of the solutions and dispersions used in these examples. Examples 3 and 4 describe the same film samples processed in a second developer. Example 1 contains no added material in the first gelatin layer. Example 2 is an example of a compound of our invention according to formula I.
Gelatin Interlayer Melt Preparation. This is an interlayer consisting of only gelatin that serves as a control for comparison of the effect of added materials on transfer of heat-transferable dyes through gelatin layers. […]

Compound | transfer of the integral dye density to receiver [1] | transfer of the integral dye density to the receiver layer [2] | transfer of the dye density in the original image ([3]; 1-pass) [%] | transfer of the dye density in the original image ([3]; 3-pass) [%]
CCCCCCCCCCCCc1ccc(O)cc1 [CS-1] | less than 6% | less than 4% | – | –
CCCCCCCCCCS(=O)(=O)c1ccc(O)cc1 [TS-1, 4-n-Decylsulfonylphenol] | – | – | 45 | 71
